In ChEMBL document CHEMBL1201862, “PubChem BioAssay data set” (2004):
Calls of active or inactive are those of the source.

Tests used:
[1] = target: T1, Heat shock factor protein 1 (Mus musculus, UniProt P38532); experiment: enhancement of HSF1-driven luciferase signal – cell-based, NIH3T3, luminescence, dose retest, confirmation (AID 435004); assay type: functional;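 further: stress induced by proteasome inhibitor MG132 added 30 min after compound; luciferase reporter driven by HSF1 response element in NIH3T3 cells; actives raise luminescence as potentiators of the MG132 stress response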
T1 sequence (P38532 whole entry): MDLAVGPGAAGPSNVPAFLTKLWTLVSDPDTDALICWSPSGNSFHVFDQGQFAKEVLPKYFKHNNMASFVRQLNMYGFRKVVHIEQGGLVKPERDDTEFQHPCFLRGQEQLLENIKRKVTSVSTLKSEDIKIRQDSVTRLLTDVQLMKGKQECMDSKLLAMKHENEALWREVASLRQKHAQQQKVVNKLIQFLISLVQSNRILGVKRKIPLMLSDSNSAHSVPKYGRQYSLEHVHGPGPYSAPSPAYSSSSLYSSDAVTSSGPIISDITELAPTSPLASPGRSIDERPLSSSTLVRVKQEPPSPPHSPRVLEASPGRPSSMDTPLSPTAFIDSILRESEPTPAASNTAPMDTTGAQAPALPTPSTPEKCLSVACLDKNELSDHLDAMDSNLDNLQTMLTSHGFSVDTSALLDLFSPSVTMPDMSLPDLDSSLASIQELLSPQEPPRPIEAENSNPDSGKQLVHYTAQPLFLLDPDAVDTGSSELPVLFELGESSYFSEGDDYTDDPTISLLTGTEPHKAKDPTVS

[2] = target: T2, Polyadenylate-binding protein 1 (Homo sapiens, UniProt P11940); experiment: MLLE binding blockers, Cy5 peptide tracer – biochemical, fluorescence polarization, Cy5-PAM2 peptide, secondary, miRNA deadenylation inhibitor project, dose response (AID 602260); assay type: functional; settings: read-out: IC50_Mean
T2 sequence (P11940 whole entry, the tested form may be a part): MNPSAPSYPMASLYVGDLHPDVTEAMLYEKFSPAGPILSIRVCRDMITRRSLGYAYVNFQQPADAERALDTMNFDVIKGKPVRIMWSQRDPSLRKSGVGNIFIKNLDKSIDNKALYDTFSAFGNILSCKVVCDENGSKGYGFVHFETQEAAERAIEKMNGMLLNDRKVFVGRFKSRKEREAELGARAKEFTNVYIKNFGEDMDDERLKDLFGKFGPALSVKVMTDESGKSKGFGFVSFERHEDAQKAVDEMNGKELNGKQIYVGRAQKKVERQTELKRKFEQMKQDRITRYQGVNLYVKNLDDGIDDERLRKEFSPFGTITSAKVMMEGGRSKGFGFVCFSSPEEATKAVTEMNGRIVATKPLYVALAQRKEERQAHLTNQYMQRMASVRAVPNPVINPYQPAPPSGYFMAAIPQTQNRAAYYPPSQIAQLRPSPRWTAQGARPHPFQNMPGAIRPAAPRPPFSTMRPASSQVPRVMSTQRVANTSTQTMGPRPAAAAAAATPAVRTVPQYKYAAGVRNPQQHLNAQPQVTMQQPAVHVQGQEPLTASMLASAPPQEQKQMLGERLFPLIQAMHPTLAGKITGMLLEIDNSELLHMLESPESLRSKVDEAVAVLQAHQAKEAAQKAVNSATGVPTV

[3] = target: T2, Polyadenylate-binding protein 1; experiment: MLLE domain peptide-binding blockers, IC50 – biochemical, fluorescence polarization, FITC-PAM2 peptide, dose response (AID 602259); assay type: functional; settings: read-out: IC50_Mean
Fatty acid synthase [4] = target: T3, Fatty acid synthase (Homo sapiens, UniProt P49327); experiment: inhibition of human FAS-TE enzyme activity – biochemical, endpoint fluorescence intensity, uHTS hits, dose response (AID 624327); assay type: functional;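 further: fluorescence from hydrolysis of an O-methyl fluorescein acyl ester substrate by the enzyme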
T3 sequence (P49327 whole entry): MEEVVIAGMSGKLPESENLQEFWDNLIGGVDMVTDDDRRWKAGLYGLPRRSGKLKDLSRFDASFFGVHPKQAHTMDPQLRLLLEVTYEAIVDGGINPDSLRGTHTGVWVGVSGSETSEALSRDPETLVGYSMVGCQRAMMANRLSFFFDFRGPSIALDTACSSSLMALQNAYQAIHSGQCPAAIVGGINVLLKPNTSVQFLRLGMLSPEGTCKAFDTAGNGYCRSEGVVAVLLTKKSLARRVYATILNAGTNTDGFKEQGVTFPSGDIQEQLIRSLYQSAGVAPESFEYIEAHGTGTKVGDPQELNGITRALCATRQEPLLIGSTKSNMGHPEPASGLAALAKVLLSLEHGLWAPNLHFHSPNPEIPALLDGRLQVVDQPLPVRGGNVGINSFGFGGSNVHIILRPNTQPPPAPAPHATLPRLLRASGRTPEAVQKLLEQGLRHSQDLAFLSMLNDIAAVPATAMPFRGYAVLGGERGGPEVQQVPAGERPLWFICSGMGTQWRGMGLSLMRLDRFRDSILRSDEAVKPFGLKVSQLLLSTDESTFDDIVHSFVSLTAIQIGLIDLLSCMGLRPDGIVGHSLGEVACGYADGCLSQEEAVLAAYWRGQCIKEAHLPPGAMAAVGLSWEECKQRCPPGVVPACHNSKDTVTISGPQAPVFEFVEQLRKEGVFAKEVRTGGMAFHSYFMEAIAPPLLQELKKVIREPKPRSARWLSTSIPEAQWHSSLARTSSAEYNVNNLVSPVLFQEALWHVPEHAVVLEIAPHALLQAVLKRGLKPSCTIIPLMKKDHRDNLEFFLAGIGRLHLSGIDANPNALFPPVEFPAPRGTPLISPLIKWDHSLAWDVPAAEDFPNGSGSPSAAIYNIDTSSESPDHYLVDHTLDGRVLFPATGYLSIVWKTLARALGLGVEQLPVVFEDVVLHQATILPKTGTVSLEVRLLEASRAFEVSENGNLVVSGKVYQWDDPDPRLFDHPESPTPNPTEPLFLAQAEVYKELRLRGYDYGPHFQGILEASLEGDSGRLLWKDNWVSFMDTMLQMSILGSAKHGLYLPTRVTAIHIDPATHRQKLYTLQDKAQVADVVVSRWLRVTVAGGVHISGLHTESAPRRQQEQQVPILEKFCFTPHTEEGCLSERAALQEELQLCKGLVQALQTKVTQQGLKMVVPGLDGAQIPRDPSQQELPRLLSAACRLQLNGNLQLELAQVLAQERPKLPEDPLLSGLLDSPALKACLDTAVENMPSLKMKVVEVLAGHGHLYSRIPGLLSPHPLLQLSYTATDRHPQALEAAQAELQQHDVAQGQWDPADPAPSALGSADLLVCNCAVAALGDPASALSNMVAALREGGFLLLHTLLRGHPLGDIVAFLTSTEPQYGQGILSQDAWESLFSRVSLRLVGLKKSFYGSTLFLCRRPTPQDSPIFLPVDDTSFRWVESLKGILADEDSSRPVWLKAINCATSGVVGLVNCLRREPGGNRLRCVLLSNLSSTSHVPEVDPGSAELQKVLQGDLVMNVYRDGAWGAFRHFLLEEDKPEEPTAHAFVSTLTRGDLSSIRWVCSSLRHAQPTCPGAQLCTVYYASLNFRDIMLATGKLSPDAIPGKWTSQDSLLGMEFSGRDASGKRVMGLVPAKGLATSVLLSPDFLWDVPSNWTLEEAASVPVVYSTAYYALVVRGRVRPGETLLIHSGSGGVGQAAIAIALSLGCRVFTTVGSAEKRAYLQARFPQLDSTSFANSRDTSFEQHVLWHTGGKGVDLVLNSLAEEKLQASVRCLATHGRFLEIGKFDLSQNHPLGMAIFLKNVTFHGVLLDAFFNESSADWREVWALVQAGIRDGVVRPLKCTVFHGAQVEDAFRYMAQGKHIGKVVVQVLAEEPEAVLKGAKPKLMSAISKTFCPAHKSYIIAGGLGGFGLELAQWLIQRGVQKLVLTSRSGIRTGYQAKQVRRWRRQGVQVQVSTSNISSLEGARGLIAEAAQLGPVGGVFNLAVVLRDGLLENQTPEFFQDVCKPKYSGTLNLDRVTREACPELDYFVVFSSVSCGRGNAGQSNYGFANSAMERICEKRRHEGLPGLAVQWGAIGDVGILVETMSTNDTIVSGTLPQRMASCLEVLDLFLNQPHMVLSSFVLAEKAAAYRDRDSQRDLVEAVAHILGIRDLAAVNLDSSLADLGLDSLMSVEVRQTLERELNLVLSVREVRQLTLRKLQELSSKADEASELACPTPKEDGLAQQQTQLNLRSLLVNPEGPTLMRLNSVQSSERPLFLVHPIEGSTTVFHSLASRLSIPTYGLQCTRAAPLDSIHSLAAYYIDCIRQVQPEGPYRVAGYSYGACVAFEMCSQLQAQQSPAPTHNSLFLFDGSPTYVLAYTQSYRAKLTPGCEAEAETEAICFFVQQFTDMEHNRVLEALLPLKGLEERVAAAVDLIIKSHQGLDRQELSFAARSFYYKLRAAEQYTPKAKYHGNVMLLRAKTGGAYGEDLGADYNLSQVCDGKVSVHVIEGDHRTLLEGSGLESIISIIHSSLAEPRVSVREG

Fatty acid synthase [5] = target: T3, Fatty acid synthase; experiment: inhibition of human FAS-TE enzyme activity – biochemical, kinetic fluorescence intensity, dose response (AID 624326); assay type: functional;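 further: rate of fluorescence rise from hydrolysis of a fluorogenic O-methyl fluorescein ester substrate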
Aminopeptidase N = target: T4, Aminopeptidase N (Plasmodium falciparum FcB1/Columbia, UniProt O96935); experiment: malaria alanyl aminopeptidase activity blockers – biochemical, fluorogenic H-Leu-NHMec substrate, 1536-well (AID 1445); design: species or system Plasmodium falciparum 3D7, 3D7
T4 sequence (O96935 whole entry): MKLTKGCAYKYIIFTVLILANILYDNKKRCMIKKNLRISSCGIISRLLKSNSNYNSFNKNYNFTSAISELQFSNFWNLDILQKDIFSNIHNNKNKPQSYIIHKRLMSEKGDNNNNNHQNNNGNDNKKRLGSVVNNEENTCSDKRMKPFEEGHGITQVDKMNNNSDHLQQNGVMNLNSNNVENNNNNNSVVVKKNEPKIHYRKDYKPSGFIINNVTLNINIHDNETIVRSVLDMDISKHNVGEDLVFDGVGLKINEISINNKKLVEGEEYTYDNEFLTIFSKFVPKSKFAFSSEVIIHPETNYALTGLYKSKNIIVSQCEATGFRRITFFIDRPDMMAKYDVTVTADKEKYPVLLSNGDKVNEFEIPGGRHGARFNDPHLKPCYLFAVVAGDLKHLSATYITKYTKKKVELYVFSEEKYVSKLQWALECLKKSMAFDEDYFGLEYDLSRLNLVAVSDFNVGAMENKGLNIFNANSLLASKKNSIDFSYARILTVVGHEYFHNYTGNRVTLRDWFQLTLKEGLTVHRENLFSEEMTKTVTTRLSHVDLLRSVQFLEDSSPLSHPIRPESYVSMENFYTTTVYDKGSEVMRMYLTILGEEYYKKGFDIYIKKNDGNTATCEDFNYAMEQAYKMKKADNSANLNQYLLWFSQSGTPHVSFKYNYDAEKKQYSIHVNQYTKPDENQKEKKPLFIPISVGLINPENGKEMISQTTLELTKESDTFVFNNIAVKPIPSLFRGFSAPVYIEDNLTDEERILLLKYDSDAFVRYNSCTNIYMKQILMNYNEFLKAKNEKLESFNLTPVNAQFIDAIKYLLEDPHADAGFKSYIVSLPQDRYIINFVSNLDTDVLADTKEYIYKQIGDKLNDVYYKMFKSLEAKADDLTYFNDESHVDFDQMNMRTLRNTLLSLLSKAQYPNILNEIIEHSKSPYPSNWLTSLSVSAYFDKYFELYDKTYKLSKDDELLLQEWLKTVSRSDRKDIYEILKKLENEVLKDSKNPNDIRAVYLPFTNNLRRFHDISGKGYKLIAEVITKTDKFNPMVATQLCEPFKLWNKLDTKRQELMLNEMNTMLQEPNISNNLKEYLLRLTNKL

[6] = test system: Streptococcus sp. 'group A'; experiment: Streptococcus pyogenes SK(-)GAS viability under kanamycin – luminescence, BacTiterGlo, confirmation, counter-screen for streptokinase expression inhibitor project, dose response (AID 1900); assay type: functional, organism-based
Streptokinase A = target: T5, Streptokinase A (Streptococcus pyogenes serotype M1, UniProt P10520); experiment: viability-normalized secreted streptokinase activity reduction – plasminogen activation absorbance, OD405, dose response (AID 1914); assay type: functional, Streptococcus pyogenes M1 GAS;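 further: secreted streptokinase activity via plasminogen activation per viability signal from cell pellet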
T5 sequence (P10520 whole entry): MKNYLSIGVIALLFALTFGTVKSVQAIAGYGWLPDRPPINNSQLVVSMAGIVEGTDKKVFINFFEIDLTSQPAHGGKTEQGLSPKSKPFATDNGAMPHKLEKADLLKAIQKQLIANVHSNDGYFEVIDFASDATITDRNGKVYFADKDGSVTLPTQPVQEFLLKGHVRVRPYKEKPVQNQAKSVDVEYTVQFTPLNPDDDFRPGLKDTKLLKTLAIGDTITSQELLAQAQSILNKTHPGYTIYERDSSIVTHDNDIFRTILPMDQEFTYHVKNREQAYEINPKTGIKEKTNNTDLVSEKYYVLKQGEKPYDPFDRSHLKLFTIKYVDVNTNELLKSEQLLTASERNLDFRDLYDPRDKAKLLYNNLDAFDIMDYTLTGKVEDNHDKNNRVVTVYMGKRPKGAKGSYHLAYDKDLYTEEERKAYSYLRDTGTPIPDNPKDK

Streptococcus = experiment: GAS UMAA2166 growth inhibition – luminescence, BacTiterGlo, counter-screen for streptokinase expression inhibitor project, dose response (AID 1915); assay type: functional, organism-based;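 further: potency for reduction of bacterial viability or growth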
Estrogen receptor = target: T6, Estrogen receptor (Homo sapiens, UniProt P03372);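 further: potency for inhibiting coactivator peptide recruitment to the receptor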
T6 sequence (P03372 whole entry): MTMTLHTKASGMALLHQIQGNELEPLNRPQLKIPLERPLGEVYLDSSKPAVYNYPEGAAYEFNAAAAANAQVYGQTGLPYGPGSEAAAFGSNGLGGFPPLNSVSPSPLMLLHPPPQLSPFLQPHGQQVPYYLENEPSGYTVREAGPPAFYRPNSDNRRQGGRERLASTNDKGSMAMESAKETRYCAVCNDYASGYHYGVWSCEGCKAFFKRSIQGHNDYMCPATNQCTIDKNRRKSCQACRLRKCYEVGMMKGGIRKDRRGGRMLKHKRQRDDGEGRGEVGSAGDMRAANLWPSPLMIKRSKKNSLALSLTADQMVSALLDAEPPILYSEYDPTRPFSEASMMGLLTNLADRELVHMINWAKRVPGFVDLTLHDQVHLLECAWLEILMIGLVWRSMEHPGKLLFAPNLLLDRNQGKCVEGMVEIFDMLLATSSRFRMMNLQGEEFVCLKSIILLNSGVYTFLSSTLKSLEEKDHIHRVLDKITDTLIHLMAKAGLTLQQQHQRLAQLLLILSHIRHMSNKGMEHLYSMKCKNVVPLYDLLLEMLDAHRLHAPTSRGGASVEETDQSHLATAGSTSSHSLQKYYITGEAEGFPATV

[7] = viability of PTEN-deleted HCT116 cells – cell-based, HCT116 PTEN knockout, dose response (AID 1047); assay type: functional;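 further: HCT116 colon tumor cells with PTEN knocked out; cells exposed to compound for 60 hours before readout; potency for loss of cell viability measured by luminescence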
[8] = viability of HCT116 lacking mutant beta-catenin – cell-based, human colon tumor, dose response (AID 1045); assay type: functional;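 further: HCT116 colon tumor cells with beta catenin knocked out; cells exposed to compound for 60 hours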
[9] = blockers of HIV-1 envelope-mediated cell-cell fusion – cherry-pick, dose response (AID 652057); assay type: functional, cell-based
[10] = HIV-1 AD8 envelope cell-cell fusion blockers – cherry-pick, dose response (AID 652062); assay type: functional, cell-based;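 further: luciferase signal from cell-cell fusion driven by HIV-1 clade B AD8 Env; potency is for inhibitors of fusion seen as a drop in luminescence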
[11] = Luminescence Cell-Based Dose Retest to Confirm Inhibitors of Cancer Stem Cells. [Related pubchem assays (depositor defined):AID2717, AID2721]; assay type: functional; settings: Homo sapiens
INS1 = experiment: INS-1E survival protection against cytokine death – cell-based, luminescence, retest, dose response (AID 449756); assay type: functional; settings: Rattus norvegicus;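 further: cell death triggered by IL-1 beta plus TNF-alpha plus IFN-gamma mixture; protective hits raise ATP signal compared with cytokine alone wells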

CCN(CCCNC(=O)CCCN1C(=O)COc2ccc(C)cc21)c1cccc(C)c1
EC50 [1]: > 260 µM (inactive)

COc1cccc(-c2nc(=S)c3c(n2CCCO)CCCC3)c1
IC50 [2]: > 66 µM (inactive) | IC50 [3]: > 66 µM (inactive)

CN(C)CCc1nc2ccccc2c(=O)n1-c1ccccc1
EC50 [1]: > 260 µM (inactive)

CC1(C)c2cc(O)ccc2OC1N1CCOCC1 (configuration not stated)
EC50 [1]: > 260 µM (inactive)

O=C(COC(=O)c1cc([N+](=O)[O-])ccc1N1CCOCC1)NCCc1ccccc1
IC50 (Fatty acid synthase [4]): 1.98 µM (active) | IC50 (Fatty acid synthase [5]): 2.6 µM (active)

COc1cc(OC)c(OC)cc1CN(C)CCc1ccccn1
EC50 [1]: > 260 µM (inactive)

O=C(O)/C(=C\c1ccc(-c2ccc(F)cc2)o1)c1ccccc1
IC50 (Aminopeptidase N): 51.4 µM (active)

COc1cc2nc(CSc3nc(-c4ccc(F)cc4)cs3)nc(O)c2cc1OC
EC50 [6]: > 150 µM (not active) | EC50 (Streptokinase A): > 150 µM (not active) | EC50 (Streptococcus): > 150 µM (not active) | EC50 [1]: > 260 µM (inactive)

N#C/C(=C(\O)Nc1ccc(Cl)cc1)c1nc2ccccc2[nH]1
IC50 (Estrogen receptor): 27.1 µM (active) | EC50 [7]: 31.9 µM (active) | EC50 [8]: 35.1 µM (active)

COc1ccc([N+](=O)[O-])cc1C(=O)NCCOc1ccc(Cl)cc1
IC50 (Fatty acid synthase [4]): 5.95 µM (active) | IC50 (Fatty acid synthase [5]): 7.34 µM (active)

COc1ccccc1-c1ccc2c(c1)O[C@H](CN(C)S(=O)(=O)c1ccc(C)cc1)[C@H](C)CN([C@@H](C)CO)S2(=O)=O
AC50 [9]: 2.84 µM (active) | AC50 [10]: 2.97 µM (active)

N#Cc1cc(Oc2ccc(Cl)cc2)c(N2CCOCC2)cc1C#N
IC50 (Fatty acid synthase [4]): 4.35 µM (active) | IC50 (Fatty acid synthase [5]): 4.83 µM (active)

CCC(=O)Nc1nonc1-c1nc2ccccc2n1N(C(=O)CC)C(=O)CC
IC50 (Estrogen receptor): > 50 µM (not active)

O=C(/C=C/c1cccc([N+](=O)[O-])c1)NC(=S)Nc1ccc(CN2CCOCC2)cc1
EC50 [1]: 14.6 µM (active) | IC50 [2]: > 66 µM (inactive) | IC50 [3]: > 66 µM (inactive)

O=S(=O)([N-]c1nc2ccccc2nc1-[n+]1ccc(Cc2ccccc2)cc1)c1ccc(Br)s1
AC50 [11]: 6.23 µM (active) | AC50 (INS1): 6.81 µM (active) | IC50 [2]: > 66 µM (inactive) | IC50 [3]: 52.3 µM (inactive)

COc1ccc(CN2CC(=O)N3[C@H]4c5ccccc5OC[C@@H]4[C@H](c4ccccc4)[C@]3(C)C2=O)cc1
IC50 [2]: > 66 µM (inactive) | IC50 [3]: > 66 µM (inactive)

COC(=O)Cn1c(=O)c2c(nc3n2CC(C)CN3CCc2ccccc2)n(C)c1=O (configuration not stated)
EC50 [1]: > 260 µM (inactive)

Brc1ccc(-c2nnc(-c3cccnc3)c3conc23)cc1
IC50 (Estrogen receptor): 6.62 µM (active)

CSc1nc(NCc2ccco2)c2ccccc2n1
IC50 (Estrogen receptor): > 50 µM (not active)

O=C(NCc1ccc2c(c1)OCO2)C1CCCN(S(=O)(=O)c2cccnc2)C1 (configuration not stated)
IC50 (Aminopeptidase N): 70.7 µM (active)

Cc1ccc(NC(=O)c2cnn(-c3ccccc3)c2C)cc1
EC50 [1]: > 260 µM (inconclusive)

Cc1ccc(CNC(=O)CSc2nc3ccsc3c(=O)n2NC(=O)c2ccccc2)cc1
IC50 (Aminopeptidase N): 11.1 µM (active)

O=C(OCC(=O)N1CCN(c2ccccc2)CC1)c1cccc([N+](=O)[O-])c1
IC50 (Fatty acid synthase [4]): 7.7 µM (active) | IC50 (Fatty acid synthase [5]): 11.9 µM (active)

Cc1cc(O)nc(-n2ncc(C#N)c2N)n1
EC50 [1]: > 260 µM (inactive)

O=[N+]([O-])c1cccc(CN2CC=C(c3ccc(F)cc3)CC2)c1
IC50 (Fatty acid synthase [4]): 11.4 µM (active) | IC50 (Fatty acid synthase [5]): 9.86 µM (active)

CCCOc1ccc(C(=O)NNC(=S)NC(=O)c2cc(-c3ccc(Cl)cc3)nc3ccccc23)cc1
EC50 [6]: < 0.06 µM (active) | EC50 (Streptococcus): < 0.06 µM (active) | IC50 [2]: > 66 µM (inactive) | IC50 [3]: > 66 µM (inactive)

Cc1ccc(-c2nnn(CC(=O)Nc3ccc4nn(-c5ccccc5)nc4c3)n2)o1
IC50 (Estrogen receptor): > 50 µM (not active)

CCOC(=O)N1CCN(C(=O)C(=O)NNC(=O)COc2ccc(Cl)cc2)CC1
IC50 (Aminopeptidase N): 106 µM (active)

O=S(=O)(c1cccc(-c2cn3cccnc3n2)c1)N1CCCCCC1
IC50 (Estrogen receptor): 22.3 µM (active)

CC1=CC(=O)C=CC1=Nc1ccc(N(C)C)cc1
IC50 [2]: 61.6 µM (inactive) | IC50 [3]: > 66 µM (inactive)
